According to patent publication US10829473B2, “Modulators of the cystic fibrosis transmembrane conductance regulator protein and methods of use” (AbbVie Overseas S.Á.R.L., priority 2017, dated 2020):
pEC50: −log10 of the molar value. Like-named read-outs stand apart in the source and are kept apart here. Marks after values point to notes of the source that are not given here.

Target: T1, F508delCFTR (Homo sapiens, UniProt P13569, DEL508-508)
T1 construct: expressed in transfected cells; host or cells: CFBE41o- human lung derived epithelial cells (CFBE41o-F508delCFTR-HRP), doxycycline-inducible
T1 sequence (P13569 with tags, fused parts or gaps DEL508-508): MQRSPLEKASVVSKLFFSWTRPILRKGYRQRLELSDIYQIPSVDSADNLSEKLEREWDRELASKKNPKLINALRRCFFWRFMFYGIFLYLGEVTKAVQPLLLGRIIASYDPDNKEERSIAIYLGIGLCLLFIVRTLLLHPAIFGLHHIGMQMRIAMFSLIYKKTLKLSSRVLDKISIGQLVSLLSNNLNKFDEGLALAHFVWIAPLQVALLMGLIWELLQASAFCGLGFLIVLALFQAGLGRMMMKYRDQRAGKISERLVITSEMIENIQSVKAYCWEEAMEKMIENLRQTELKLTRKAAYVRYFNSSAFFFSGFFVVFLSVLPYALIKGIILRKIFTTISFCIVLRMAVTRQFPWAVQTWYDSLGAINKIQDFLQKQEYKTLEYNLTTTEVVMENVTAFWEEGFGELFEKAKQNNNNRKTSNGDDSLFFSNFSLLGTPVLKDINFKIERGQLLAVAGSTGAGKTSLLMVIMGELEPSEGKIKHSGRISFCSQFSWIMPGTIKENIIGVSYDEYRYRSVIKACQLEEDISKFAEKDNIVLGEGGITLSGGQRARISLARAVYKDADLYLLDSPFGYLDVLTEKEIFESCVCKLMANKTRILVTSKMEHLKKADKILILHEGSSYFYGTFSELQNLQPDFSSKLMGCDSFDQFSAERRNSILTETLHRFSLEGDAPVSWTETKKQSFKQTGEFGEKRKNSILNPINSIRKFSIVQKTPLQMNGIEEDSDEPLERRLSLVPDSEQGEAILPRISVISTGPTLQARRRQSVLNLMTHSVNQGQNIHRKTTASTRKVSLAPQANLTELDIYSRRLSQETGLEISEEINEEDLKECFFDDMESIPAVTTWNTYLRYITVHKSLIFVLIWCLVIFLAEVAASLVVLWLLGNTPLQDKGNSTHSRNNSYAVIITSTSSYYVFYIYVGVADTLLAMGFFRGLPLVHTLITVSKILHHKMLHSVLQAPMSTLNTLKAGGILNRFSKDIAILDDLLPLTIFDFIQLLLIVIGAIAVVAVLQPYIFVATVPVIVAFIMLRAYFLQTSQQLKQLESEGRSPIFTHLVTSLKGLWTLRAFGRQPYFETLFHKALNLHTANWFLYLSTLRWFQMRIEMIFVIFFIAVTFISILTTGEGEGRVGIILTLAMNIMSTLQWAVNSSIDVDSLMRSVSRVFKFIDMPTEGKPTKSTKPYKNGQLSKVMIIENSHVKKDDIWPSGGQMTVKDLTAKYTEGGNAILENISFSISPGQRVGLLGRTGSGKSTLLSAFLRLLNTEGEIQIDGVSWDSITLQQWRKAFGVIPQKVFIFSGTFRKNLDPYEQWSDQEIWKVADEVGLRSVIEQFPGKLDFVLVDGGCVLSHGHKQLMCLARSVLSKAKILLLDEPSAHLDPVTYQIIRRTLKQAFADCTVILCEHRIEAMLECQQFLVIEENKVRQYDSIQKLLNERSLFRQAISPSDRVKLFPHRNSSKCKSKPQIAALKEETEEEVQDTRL
Assay: Cell Surface Expression-Horse Radish Peroxidase (CSE-HRP) Assay;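 on EC50 (with co-corrector): co-corrector chromenyl benzoic acid corrector at 2 or 3 µM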
Type: cell-based
Conditions: for Maximum % activity (with co-corrector) / Emax: maximum at any tested concentration; for Emax: read-out: Maximum % activity (without co-corrector)
Method: A cellular assay for measuring the F508delCFTR cell surface expression after correction with test compounds either without or with a co-corrector (2 μM of 3-[(2R,4R)-4-({[1-(2,2-difluoro-1,3-benzodioxol-5-yl)cyclopropyl]carbonyl}amino)-7-methoxy-3,4-dihydro-2H-chromen-2-yl]benzoic acid), was developed in human lung derived epithelial cell line (CFBE4lo−) (Veit G et al, (2012) Mol Biol Cell. 23(21): 4188-4202). The development was achieved by expressing the F508delCFTR mutation along with a horseradish peroxidase (HRP) in the fourth exofacial loop, and then measuring the HRP activity using luminescence readout from these cells, CFBE410-F508delCFTR-HRP, that were incubated overnight with the test corrector compounds, either without or with the co-corrector. For this primary assay, the CFBE410-F508delCFTR-HRP cells were plated in 384-well plates (Greiner Bio-one; Cat 781080) at 4,000 cells/well along with 0.5 μg/mL doxycycline to induce the F508delCFTR-HRP expression and further incubated at 37° C., 5% CO2 for 68-72 hours. The test compounds were then added either without or with a co-corrector at the required concentrations and further incubated for 18-24 hours at 33° C. The highest concentration tested was 20 μM or 30 μM (GI-1 to GIII-36) with an 8-point concentration response curve using a 3-fold dilution in both the test compound without or with the co-corrector. Three replicate plates were run to determine one EC50. All plates contained negative controls (dimethyl sulfoxide, DMSO) and positive control (2 μM or 3 μM (GI-1 to GIII-36) of 3-[(2R,4R)-4-({[1-(2,2-difluoro-1,3-benzodioxol-5-yl)cyclopropyl]carbonyl}amino)-7-methoxy-3,4-dihydro-2H-chromen-2-yl]benzoic acid) as well as on-plate concentration response of the positive control. Post incubation, the plates were washed 5× times with Dulbecco's phosphate buffered saline (DPBS), followed by the addition of the HRP substrate, luminol (50 4), and measuring the HRP activity using luminescence readout on EnVision® Multilabel Plate Reader (Perkin Elmer; product number 2104-0010). The raw counts from the experiment were analyzed using Accelrys® Assay Explorer v3.3.
Z′ greater than 0.5 was used as passing quality control criteria for the plates.
The Z′ is defined as: 1−[3*SDPositve Control+3*SDNegative Control/Absolute(MeanPositive Control−MeanNegative Control)] wherein “SD” is standard deviation.
The % activity measured at each of the 8 test concentrations of the test compound added either without or with a co-corrector (2 μM or 3 μM (GI-1 to GIII-36) of 3-[(2R,4R)-4-({[1-(2,2-difluoro-1,3-benzodioxol-5-yl)cyclopropyl]carbonyl}amino)-7-methoxy-3,4-dihydro-2H-chromen-2-yl]benzoic acid) was normalized to the on-plate positive control using the following formulae: % activity (Test compound without co-corrector)=[(test compound without co-corrector response DMSO response)/(positive control response DMSO response)]*100 % activity (Test compound with co-corrector)=[(test compound with co-corrector response DMSO response)/(positive control response DMSO response)]*100
The maximum % activity achieved for the test compound either without or with a co-corrector at any tested concentration is presented in Table 6 along with the respective EC50's calculated using the following general sigmoidal curve with variable Hill slope equation (described as Model 42 in the Accelrys® Assay Explorer v3.3 software): y=(a−d)/(1+(x/c)b)+d
General sigmoidal curve with concentration, response, top, bottom, EC50 and Hill slope. This model describes a sigmoidal curve with an adjustable baseline, a. The equation can be used to fit curves where response is either increasing or decreasing with respect to the independent variable, “x”.
“x” is a concentration of drug under test.
“a” is the maximum response, and “d” is the minimum response
“c” is the inflection point (EGO for the curve. That is, “y” is halfway between the lower and upper asymptotes when x=c.
“b” is the slope-factor or Hill coefficient. […]

[1] = test compound alone, without co-corrector, read-out: EC50 (without co-corrector)
[2] = with co-corrector, read-out: EC50 (with co-corrector)
[3] = test compound with co-corrector
[4] = test compound with co-corrector, read-out: EC50 (with co-corrector)
[5] = test compound without co-corrector
[6] = test compound without co-corrector, read-out: EC50 (without co-corrector)

Row | Compound | pEC50 [1] | Maximum % activity (with co-corrector) (with co-corrector) | pEC50 [2] | Emax (without co-corrector) [%] | Maximum % activity (with co-corrector) [3] | pEC50 [4] | Emax [5] [%] | pEC50 [6] | EC50 (with co-corrector) [3] | EC50 (without co-corrector) [5]
1 | COc1ncc(C(F)(F)F)cc1C1(C(=O)NS(=O)(=O)c2cccc3nc(C)ccc23)CC1 [II-9] | 5.00 to 5.52 | +++ (≥350) | > 5.52 | > 150 | – | – | – | – | – | –
2 | CC(C)Oc1ncccc1C1(C(=O)NS(=O)(=O)c2cccc3ncccc23)CC1 [GII-3, 1-{2-[(propan-2-yl)oxy]pyridin-3-yl}-N-(quinoline-5-sulfonyl)cyclopropane-1-carboxamide] | – | – | – | – | ++ (≥150 and <350) | 5.00 to 5.52 | 50 to 150 | 5.00 to 5.52 | – | –
3 | CCc1ccc(OC)c(C2(C(=O)NS(=O)(=O)c3cccc4[nH]ncc34)CC2)c1 [II-72] | > 5.52 | +++ (≥350) | > 5.52 | > 150 | – | – | – | – | – | –
4 | O=C(NS(=O)(=O)c1ccccc1OC(F)(F)F)C1(c2ccc(Cl)cc2Cl)CC1 [Example III-13, 1-(2,4-dichlorophenyl)-N-[2-(trifluoromethoxy)benzene-1-sulfonyl]cyclopropane-1-carboxamide] | 5.00 to 5.52 | ++ (≥150 and <350) | > 5.52 | < 50 | – | – | – | – | – | –
5 | COc1cc(C2(C(=O)NS(=O)(=O)c3cccc4ncccc34)CC2)c(OC(F)F)cn1 [GIII-19] | – | – | – | – | ++ (≥150 and <350) | – | 50 to 150 | – | ++^a | ++^a
6 | COc1c(Cl)cc(Cl)c(OC)c1C1(C(=O)NS(=O)(=O)c2cccc3ncccc23)CC1 [Example III-103, 1-(3,5-dichloro-2,6-dimethoxyphenyl)-N-(quinoline-5-sulfonyl)cyclopropane-1-carboxamide] | 5.00 to 5.52 | +++ (≥350) | > 5.52 | > 150 | – | – | – | – | – | –
7 | COc1ccc(OC2CCOC2)cc1C1(C(=O)NS(=O)(=O)c2cccc3ncccc23)CC1 (stereo not drawn) [II-23] | 5.00 to 5.52 | +++ (≥350) | 5.00 to 5.52 | 50 to 150 | – | – | – | – | – | –
8 | COc1ccc(C(C)(C)OC)cc1C1(C(=O)NS(=O)(=O)c2cccc3nc(C)ccc23)CC1 [II-99] | > 5.52 | +++ (≥350) | > 5.52 | > 150 | – | – | – | – | – | –
9 | O=C(NS(=O)(=O)c1ccccc1)C1(c2ccc(Cl)c(Cl)c2)CC1 [Example III-34, N-(benzenesulfonyl)-1-(3,4-dichlorophenyl)cyclopropane-1-carboxamide] | < 5.00 | ++ (≥150 and <350) | < 5.00 | < 50 | – | – | – | – | – | –
10 | COc1nc(C(F)(F)F)ccc1C1(C(=O)NS(=O)(=O)c2cccc3ncccc23)CC1 [GII-10, 1-[2-methoxy-6-(trifluoromethyl)pyridin-3-yl]-N-(quinoline-5-sulfonyl)cyclopropane-1-carboxamide] | – | – | – | – | +++ (≥350) | 5.00 to 5.52 | > 150 | 5.00 to 5.52 | – | –
11 | CC(C)Oc1cnc(OC(C)C)c(C2(C(=O)NS(=O)(=O)c3cccc4[nH]ccc34)CC2)c1 [Example GI-66, 1-{2,5-bis[(propan-2-yl)oxy]pyridin-3-yl}-N-(1H-indole-4-sulfonyl)cyclopropane-1-carboxamide] | – | – | – | – | +++ (≥350) | > 5.52 | > 150 | > 5.52 | – | –
12 | COc1cnc(C2CC2)c(C2(C(=O)NS(=O)(=O)c3cccc4ncccc34)CC2)c1 [GII-15, 1-(2-cyclopropyl-5-methoxypyridin-3-yl)-N-(quinoline-5-sulfonyl)cyclopropane-1-carboxamide] | – | – | – | – | +++ (≥350) | 5.00 to 5.52 | > 150 | 5.00 to 5.52 | – | –
13 | COc1ccc(C#N)cc1C1(C(=O)NS(=O)(=O)c2cccc3c2CCCN3)CC1 [Example III-100, 1-(5-cyano-2-methoxyphenyl)-N-(1,2,3,4-tetrahydroquinoline-5-sulfonyl)cyclopropane-1-carboxamide] | 5.00 to 5.52 | +++ (≥350) | 5.00 to 5.52 | > 150 | – | – | – | – | – | –
14 | CCc1cnc(OC(C)C)c(C2(C(=O)NS(=O)(=O)c3cccc4c3CCCN4)CC2)c1 [Example GI-14, 1-{5-ethyl-2-[(propan-2-yl)oxy]pyridin-3-yl}-N-(1,2,3,4-tetrahydroquinoline-5-sulfonyl)cyclopropane-1-carboxamide] | 5.00 to 5.52 | +++ (≥350) | > 5.52 | > 150 | – | – | – | – | – | –
15 | O=C(NS(=O)(=O)c1cccc2c1CCCN2)C1(c2ccc(C(F)(F)F)nc2Cl)CC1 [GIII-28] | – | – | – | – | ++ (≥150 and <350) | < 5.00 | < 50 | < 5.00 | – | –
16 | CCc1cnc(N2CCC(OC)CC2)c(C2(C(=O)NS(=O)(=O)c3cccc4ncccc34)CC2)c1 [GII-57, 1-[5-ethyl-2-(4-methoxypiperidin-1-yl)pyridin-3-yl]-N-(quinoline-5-sulfonyl)cyclopropane-1-carboxamide] | – | – | – | – | +++ (≥350) | 5.00 to 5.52 | > 150 | 5.00 to 5.52 | – | –
17 | COc1ncc(C(F)(F)F)cc1C1(C(=O)NS(=O)(=O)c2cccc3[nH]ncc23)CC1 [Example III-98, N-(1H-indazole-4-sulfonyl)-1-[2-methoxy-5-(trifluoromethyl)pyridin-3-yl]cyclopropane-1-carboxamide] | 5.00 to 5.52 | +++ (≥350) | 5.00 to 5.52 | > 150 | – | – | – | – | – | –
18 | COc1ncc(C2CCC2)c(C)c1C1(C(=O)NS(=O)(=O)c2cccc3ccn(C)c23)CC1 [II-42] | 5.00 to 5.52 | +++ (≥350) | > 5.52 | 50 to 150 | – | – | – | – | – | –
19 | CCc1cnc(OCC(C)C)c(C2(C(=O)NS(=O)(=O)c3cccc4nc(N)ccc34)CC2)c1 [Example I-98, N-(2-aminoquinoline-5-sulfonyl)-1-[5-ethyl-2-(2-methylpropoxy)pyridin-3-yl]cyclopropane-1-carboxamide] | > 5.52 | +++ (≥350) | > 5.52 | > 150 | – | – | – | – | – | –
20 | COc1ncc(C2CCC2)cc1C1(C(=O)NS(=O)(=O)c2cccc3ccccc23)CC1 [Example I-5, 1-(5-cyclobutyl-2-methoxypyridin-3-yl)-N-(naphthalene-1-sulfonyl)cyclopropane-1-carboxamide] | 5.00 to 5.52 | +++ (≥350) | > 5.52 | > 150 | – | – | – | – | – | –
21 | Cc1cnc(OCC(C)C)c(C2(C(=O)NS(=O)(=O)c3cccc4nc(C)ccc34)CC2)c1 [Example GI-43, 1-[5-methyl-2-(2-methylpropoxy)pyridin-3-yl]-N-(2-methylquinoline-5-sulfonyl)cyclopropane-1-carboxamide] | – | – | – | – | +++ (≥350) | > 5.52 | > 150 | > 5.52 | – | –
